Measurements published in ChEMBL document CHEMBL3885881, “DrugMatrix”.

Species: Rattus norvegicus
Assay: DrugMatrix - Regimen: Daily Repeat
Assay type: toxicity, organism-based, Sprague-Dawley
Set-up: regimen Daily Repeat, gender Male, age 6-8 weeks
Settings: in vivo, po, route oral GAVAGE, […]; for ABSOLUTE BASOPHIL / ABSOLUTE EOSINOPHIL / ABSOLUTE LYMPHOCYTE / ABSOLUTE MONOCYTE / ABSOLUTE SEGMENTED NEUTROPHIL / BASOPHIL / EOSINOPHIL / ERYTHROCYTE COUNT / HEMATOCRIT / HEMOGLOBIN / LEUKOCYTE COUNT / LYMPHOCYTE / MEAN CORPUSCULAR HEMOGLOBIN / MEAN CORPUSCULAR HEMOGLOBIN CONCENTRATION / MEAN CORPUSCULAR VOLUME / MONOCYTE / NEUTROPHIL / NUCLEATED RED BLOOD CELLS / PLATELET COUNT: tissue Blood; for ALANINE AMINOTRANSFERASE / ALBUMIN / ALKALINE PHOSPHATASE / ASPARTATE AMINOTRANSFERASE / BLOOD UREA NITROGEN / CARBON DIOXIDE / CHLORIDE / CHOLESTEROL / CREATINE PHOSPHOKINASE / CREATININE / GLUCOSE / LACTATE DEHYDROGENASE / LIPASE / PHOSPHORUS / SODIUM / TOTAL BILIRUBIN / TOTAL PROTEIN / URIC ACID: tissue Plasma
[1] = 0 mg/kg, 72 h, dose level Control, time 3 day
[2] = 0 mg/kg, 120 h, dose level Control, time 5 day
[3] = 450 mg/kg, 72 h, dose level Low, time 3 day

CC[C@H](C)C(=O)O[C@H]1C[C@@H](C)C=C2C=C[C@H](C)[C@H](CC[C@@H]3C[C@@H](O)CC(=O)O3)[C@H]21 [LOVASTATIN]
ABSOLUTE BASOPHIL [1]: 0 CELLS/uL
ABSOLUTE EOSINOPHIL [1]: 52.33 CELLS/uL
ABSOLUTE LYMPHOCYTE [1]: 9105.33 CELLS/uL
ABSOLUTE MONOCYTE [1]: 155.67 CELLS/uL
ABSOLUTE SEGMENTED NEUTROPHIL [1]: 1020 CELLS/uL
BASOPHIL [1]: 0%
EOSINOPHIL [1]: 0.33%
ERYTHROCYTE COUNT [1]: 5.03 x10E6/uL
HEMATOCRIT [1]: 31.63%
HEMOGLOBIN [1]: 12.37 G/DL
LEUKOCYTE COUNT [1]: 10.33 x10E3/uL
LYMPHOCYTE [1]: 87%
MEAN CORPUSCULAR HEMOGLOBIN [1]: 24.57 pg
MEAN CORPUSCULAR HEMOGLOBIN CONCENTRATION [1]: 39.07 G/DL
MEAN CORPUSCULAR VOLUME [1]: 62.93 fL
MONOCYTE [1]: 1.33%
NEUTROPHIL [1]: 11.33%
NUCLEATED RED BLOOD CELLS [1]: 0 /100WBC
PLATELET COUNT [1]: 896 x10E3/uL
ALANINE AMINOTRANSFERASE [1]: 75.33 u/L
ALBUMIN [1]: 3.77 G/DL
ALKALINE PHOSPHATASE [1]: 378.67 u/L
ASPARTATE AMINOTRANSFERASE [1]: 101.33 u/L
BLOOD UREA NITROGEN [1]: 11.33 mg/dL
CARBON DIOXIDE [1]: 25 mmol/L
CHLORIDE [1]: 99 MEQ/L
CHOLESTEROL [1]: 66 mg/dL
CREATINE PHOSPHOKINASE [1]: 277 u/L
CREATININE [1]: 0.33 mg/dL
GLUCOSE [1]: 198.33 mg/dL
LACTATE DEHYDROGENASE [1]: 140.33 u/L
LIPASE [1]: 11.33 u/L
PHOSPHORUS [1]: 11.83 mg/dL
SODIUM [1]: 141.03 MEQ/L
TOTAL BILIRUBIN [1]: 0.2 mg/dL
TOTAL PROTEIN [1]: 5.47 G/DL
URIC ACID [1]: 0.93 mg/dL
ABSOLUTE BASOPHIL [2]: 0 CELLS/uL
ABSOLUTE EOSINOPHIL [2]: 0 CELLS/uL
ABSOLUTE LYMPHOCYTE [2]: 8734 CELLS/uL
ABSOLUTE MONOCYTE [2]: 98.67 CELLS/uL
ABSOLUTE SEGMENTED NEUTROPHIL [2]: 1034 CELLS/uL
BASOPHIL [2]: 0%
EOSINOPHIL [2]: 0%
ERYTHROCYTE COUNT [2]: 5.19 x10E6/uL
HEMATOCRIT [2]: 33.2%
HEMOGLOBIN [2]: 12.93 G/DL
LEUKOCYTE COUNT [2]: 9.87 x10E3/uL
LYMPHOCYTE [2]: 87%
MEAN CORPUSCULAR HEMOGLOBIN [2]: 25 pg
MEAN CORPUSCULAR HEMOGLOBIN CONCENTRATION [2]: 39.03 G/DL
MEAN CORPUSCULAR VOLUME [2]: 63.93 fL
MONOCYTE [2]: 1%
NEUTROPHIL [2]: 12%
NUCLEATED RED BLOOD CELLS [2]: 0 /100WBC
PLATELET COUNT [2]: 1190 x10E3/uL
ALANINE AMINOTRANSFERASE [2]: 75.67 u/L
ALBUMIN [2]: 4 G/DL
ALKALINE PHOSPHATASE [2]: 384.33 u/L
ASPARTATE AMINOTRANSFERASE [2]: 89.67 u/L
BLOOD UREA NITROGEN [2]: 13 mg/dL
CARBON DIOXIDE [2]: 32.67 mmol/L
CHLORIDE [2]: 103 MEQ/L
CHOLESTEROL [2]: 79.67 mg/dL
CREATINE PHOSPHOKINASE [2]: 199.33 u/L
CREATININE [2]: 0.29 mg/dL
GLUCOSE [2]: 161.33 mg/dL
LACTATE DEHYDROGENASE [2]: 92.33 u/L
LIPASE [2]: 11.67 u/L
PHOSPHORUS [2]: 10.8 mg/dL
SODIUM [2]: 145.3 MEQ/L
TOTAL BILIRUBIN [2]: 0.17 mg/dL
TOTAL PROTEIN [2]: 5.7 G/DL
URIC ACID [2]: 0.63 mg/dL
ABSOLUTE BASOPHIL [3]: 0 CELLS/uL
ABSOLUTE EOSINOPHIL [3]: 0 CELLS/uL
ABSOLUTE LYMPHOCYTE [3]: 6372 CELLS/uL
ABSOLUTE MONOCYTE [3]: 86.67 CELLS/uL
ABSOLUTE SEGMENTED NEUTROPHIL [3]: 1174.67 CELLS/uL
BASOPHIL [3]: 0%
EOSINOPHIL [3]: 0%
ERYTHROCYTE COUNT [3]: 5.39 x10E6/uL
HEMATOCRIT [3]: 33.63%
HEMOGLOBIN [3]: 13.47 G/DL
LEUKOCYTE COUNT [3]: 7.63 x10E3/uL
LYMPHOCYTE [3]: 82.67%
MEAN CORPUSCULAR HEMOGLOBIN [3]: 25 pg
MEAN CORPUSCULAR HEMOGLOBIN CONCENTRATION [3]: 40.07 G/DL
MEAN CORPUSCULAR VOLUME [3]: 62.43 fL
MONOCYTE [3]: 1.33%
NEUTROPHIL [3]: 16%
NUCLEATED RED BLOOD CELLS [3]: 0 /100WBC
PLATELET COUNT [3]: 1202.67 x10E3/uL
ALANINE AMINOTRANSFERASE [3]: 138.33 u/L
ALBUMIN [3]: 4.13 G/DL
ALKALINE PHOSPHATASE [3]: 450.67 u/L
ASPARTATE AMINOTRANSFERASE [3]: 224.33 u/L
BLOOD UREA NITROGEN [3]: 11 mg/dL
CARBON DIOXIDE [3]: 27.67 mmol/L
CHLORIDE [3]: 97.33 MEQ/L
CHOLESTEROL [3]: 35 mg/dL
CREATINE PHOSPHOKINASE [3]: 505 u/L
CREATININE [3]: 0.16 mg/dL
GLUCOSE [3]: 146 mg/dL
LACTATE DEHYDROGENASE [3]: 223.33 u/L
LIPASE [3]: 10.67 u/L
PHOSPHORUS [3]: 10.17 mg/dL
SODIUM [3]: 140.53 MEQ/L
TOTAL BILIRUBIN [3]: 0.1 mg/dL
TOTAL PROTEIN [3]: 5.37 G/DL
URIC ACID [3]: 0.5 mg/dL
